Our source for the GI50 and TGI values is PubChem BioAssay (NCI).

Values joined by “and” are separate entries in the source; they are usually repeats but may differ in a detail not shown here. Identical values can stand only once.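 These data come from cells grown in 96-well plates and exposed to compound for 48 hours at five concentrations. The concentration for 50% growth inhibition is given as GI50. At the TGI there is no net growth.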

This assay has as its system MDA-MB-468 breast. In words: growth of human tumour cells (NCI), 48 h.

For `CN1CCN(Cc2ccc(NC(=O)c3cncc(C#Cc4cnc5ccc(O[C@H]6CCOC6)nn45)c3)cc2C(F)(F)F)CC1`, the GI50 was 0.75 µM and the TGI worked out at 1.69 µM.
Take `CC(C)N(Cc1c(F)cccc1F)c1ccc(CO)c(Cl)c1`: the GI50 was 0.0187 µM and the TGI amounted to 0.0531 µM.
For `COc1cc(-c2nn(-c3ccc(NC(=O)NCCNS(=O)(=O)c4ccc(F)cc4)cc3)cc2-c2ccncc2)ccc1Cl` the same measures were 0.323 µM and 1.28 µM.
In the same order, the values of `Cc1ccc2cc3c(cc(C)c4ccccc43)c3c2c1CC3` are > 100 µM and > 100 µM.
For `COc1cc2c(cc1O)CC[C@@H]1[C@@H]2CC[C@]2(C)[C@@H](OCCCN(C)C)CC[C@@H]12` the same measures were 0.12 µM and 0.3 µM.
`COc1ccc(OC)c(/C=C/C(=O)N/N=C/c2ccccc2)c1`: the GI50 is 1.96 µM and the TGI is 6.47 µM.
For `Cc1ccc(-c2nc3nc(-c4ccc(Br)cc4)nc(N4CCCNCC4)c3o2)cc1` the same measures were 3.98 µM and 15.9 µM.
`CCN(Cc1ccccn1)c1ccc(CO)c(Cl)c1`: the GI50 was 0.127 µM and the TGI was 0.331 µM.
For `C#C[C@@]1(O)[C@@H](CO)O[C@@H](n2cc(Br)c3c(N)ncnc32)[C@@H]1O` the same measures were 0.115 µM and 0.352 µM.
In the same order, the values of `O=S(=O)(Nc1ccc(Cl)c(F)c1)c1ccc(-c2cnc(C3CC3)o2)cc1` are 0.187 µM and 0.998 µM.
Turning to `NC(=O)c1c(Br)n(C2OC(CO)C(O)C2O)c2ncnc(N)c12` (centres undefined), the GI50 is 0.437 µM and the TGI was 2.36 µM.
For `CN1C[C@@H](c2ccc(Cl)cc2)[C@]2(NC(=S)N(c3ccc(F)c(Cl)c3)C2=O)[C@@]12C(=O)NC1C=CC(Cl)=C[C@H]12` (some centres undefined) the same measures were 3.38 µM and 12.9 µM.
For `COc1ccc(C(=O)c2cc(OC)c(OC)c(OC)c2)cc1OC(=O)C(Cl)(Cl)Cl`, the GI50 is 0.542 µM.
In the case of `O=C(NC1CCCCC1)OCc1c(COC(=O)NC2CCCCC2)c(-c2ccc(Cl)c(Cl)c2)n2c1CCC2`, the GI50 was 1.8 µM and the TGI was found to be 10.9 µM.
For `Nc1ccccc1NC(=O)c1ccc(CNC(=O)OCc2cccnc2)cc1` the same measures were 0.412 µM and 2.05 µM.
In the case of `COc1ccc2c(c1)O/C(=C\c1ncc([N+](=O)[O-])n1C)C2=O`, the GI50 is 1.33 µM and the TGI is 3.72 µM.
Take `O=C1CCc2c(Oc3ccc4c(c3)[C@H]3[C@@H](O4)[C@@H]3c3nc4ccc(C(F)(F)F)cc4[nH]3)ccnc2N1`: the GI50 was 1.74 µM and the TGI was 7.13 µM.
In the same order, the values of `C=CC(C)c1cccc(C=O)c1O` (centres undefined) are 51.6 µM and > 100 µM.
For `O=C(Nc1ccc(F)cc1F)c1cc(F)ccc1O` the same measures were 2.6 µM and 7.88 µM.
In the same order, the values of `O=c1nc(Nc2ccc([N+](=O)[O-])cc2O)sc2ccccc12` are 0.34 µM and 1.21 µM.
`CCn1nc(-c2ccc(C(=O)OC)cc2)nc2c(=O)n(C)c(=O)nc1-2`: the GI50 was 0.189 µM and the TGI turned out to be 0.477 µM.
On to `CC(C)C[C@@H](NC(=O)[C@@H](Cc1ccccc1)NC(=O)c1cnccn1)B1Oc2ccc(C[C@H](NC(=O)[C@H](Cc3ccc4c(c3)OB([C@@H](CC(C)C)NC(=O)[C@@H](Cc3ccccc3)NC(=O)c3cnccn3)O4)NC(=O)[C@@H](N)CC3CCC4OB([C@@H](CC(C)C)NC(=O)[C@@H](CC5CCCCC5)NC(=O)C5CNCCN5)OC4C3)C(=O)NCCCC[C@@H]3NC(=O)[C@@H](Cc4ccccc4)NC(=O)[C@H](CC(=O)O)NC(=O)CNC(=O)[C@H](CCCNC(=N)N)NC3=O)cc2O1` (some centres undefined), for which the GI50 was 0.00272 µM and < 0.0025 µM; the TGI was 0.00722 µM and < 0.0025 µM.
For `ClC(Cl)c1nc(-c2ccccc2)n2nc(-c3ccccc3)cc2n1`, the GI50 was 0.287 µM and the TGI was found to be 1.25 µM.
For `O=C1CCC/C=C\C[C@H]2C=CC(=O)/C2=C/C[C@H](CCc2cccc(C(F)(F)F)c2)O1` the same measures were 1.69 µM and 3.71 µM.
Regarding `COC(=O)c1c(C)c2n(c1C)C(=O)C(c1ccccc1)=C2`, the GI50 was 4.88 µM and the TGI is > 72.8 µM.
For `CCCC(=O)OCC1OC(n2cnc3c(=S)nc(N)[nH]c32)C(OC(=O)CCC)C1OC(=O)CCC` (centres undefined) the same measures were 0.332 µM and 2.67 µM.
Regarding `COc1cccc(/C=C2\COc3ccc(O)c(O)c3C2=O)c1`, the GI50 is 1.15 µM and the TGI turned out to be 3.15 µM.
For `COc1ccc(C2=C(c3cn(C)c4ccccc34)C(=O)OC2)cc1OC` the same measures were 1.65 µM and > 100 µM.
For `N#C/C(=C1C=C/C(=N/O)C(Cl)=C/1)c1ccc(Cl)cc1` the same measures were 3 µM and 9.7 µM.
In the same order, the values of `C/C=C/C1=CN2C(=O)c3cc(OC4OC(C)C(NC)C(C)(O)C4O)c(C)cc3N=C[C@@H]2C1` (some centres undefined) are 0.0107 µM and 0.0282 µM.
